A word on the CC50: it is the concentration that lowers cell viability or growth by half. Broadly, the AC50 is the midpoint of the concentration-response curve, whichever way the signal moves.

For 39 compounds, CC50, AC50 and EC50 results are on record in ChEMBL document CHEMBL1201862, “PubChem BioAssay data set” (2004).

The source made the active and inactive calls.

Assay [1] in a line: viability of uninfected HEp-2 cells – cell-based, HTS, cytotoxicity control for RSV inhibitor project, dose response (AID 2410). The assay is classed as functional. The settings on record: human respiratory syncytial virus.
Assay [2] concerns the target Cytochrome P450 3A4 (Homo sapiens, UniProt P08684).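 Also: CYP3A4 tested as one member of a cytochrome P450 panel screen.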
Assay [3] in a line: NIH3T3 cell viability loss – ATP luminescence, mouse fibroblasts, counter-screen, dose response (AID 2010).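 Also: cells exposed to compound for about 90 hours before reading.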 The assay is classed as functional, cell-based. (Counterscreens check selectivity or assay interference.)
Assay [4] in a line: Trypanosoma cruzi growth suppression in host cells – NIH3T3 host cells, beta-gal luminescence, confirmation (AID 2044).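 Also: intracellular parasites grown in NIH/3T3 mouse fibroblasts as host cells; luminescent beta-galactosidase reporter signal from transgenic T. cruzi replicating inside host cells; inhibitors lower the luminescence signal.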 The assay is classed as functional, cell-based.
Assay [5] addresses T1, Heat shock factor protein 1 (Mus musculus, UniProt P38532).
T1 sequence (P38532 whole entry): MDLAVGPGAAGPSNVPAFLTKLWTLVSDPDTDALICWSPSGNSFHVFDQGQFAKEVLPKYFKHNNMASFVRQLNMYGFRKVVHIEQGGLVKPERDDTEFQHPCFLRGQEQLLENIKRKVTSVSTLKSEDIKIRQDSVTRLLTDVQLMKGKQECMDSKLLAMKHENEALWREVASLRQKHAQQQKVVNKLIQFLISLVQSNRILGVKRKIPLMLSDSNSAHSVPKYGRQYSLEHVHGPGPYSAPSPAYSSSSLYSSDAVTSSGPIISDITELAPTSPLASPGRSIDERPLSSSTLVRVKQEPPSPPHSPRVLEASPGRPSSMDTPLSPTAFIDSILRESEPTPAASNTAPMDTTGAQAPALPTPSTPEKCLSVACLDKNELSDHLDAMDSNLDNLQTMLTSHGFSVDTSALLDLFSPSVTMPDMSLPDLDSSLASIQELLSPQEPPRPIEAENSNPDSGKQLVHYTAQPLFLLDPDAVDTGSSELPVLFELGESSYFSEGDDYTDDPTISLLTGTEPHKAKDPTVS
Kind of assay: decrease of HSF1-responsive luciferase luminescence – cell-based, NIH3T3, dose retest, confirmation (AID 2382).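 Also: NIH3T3 fibroblasts with HSF1-driven luciferase reporter stressed by proteasome inhibitor MG132; luminescence from HSF1-driven luciferase expression after 8 hours of MG132 stress.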 The assay is classed as functional.

Assay [6] concerns the target Cytochrome P450 2C9 (Homo sapiens, UniProt P11712).
The target of assay [7] is T2, Cytochrome P450 1A2 (Homo sapiens, UniProt P05177).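 Also: PubChem cytochrome P450 panel assay, CYP1A2 panel member.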
T2 sequence (P05177 whole entry): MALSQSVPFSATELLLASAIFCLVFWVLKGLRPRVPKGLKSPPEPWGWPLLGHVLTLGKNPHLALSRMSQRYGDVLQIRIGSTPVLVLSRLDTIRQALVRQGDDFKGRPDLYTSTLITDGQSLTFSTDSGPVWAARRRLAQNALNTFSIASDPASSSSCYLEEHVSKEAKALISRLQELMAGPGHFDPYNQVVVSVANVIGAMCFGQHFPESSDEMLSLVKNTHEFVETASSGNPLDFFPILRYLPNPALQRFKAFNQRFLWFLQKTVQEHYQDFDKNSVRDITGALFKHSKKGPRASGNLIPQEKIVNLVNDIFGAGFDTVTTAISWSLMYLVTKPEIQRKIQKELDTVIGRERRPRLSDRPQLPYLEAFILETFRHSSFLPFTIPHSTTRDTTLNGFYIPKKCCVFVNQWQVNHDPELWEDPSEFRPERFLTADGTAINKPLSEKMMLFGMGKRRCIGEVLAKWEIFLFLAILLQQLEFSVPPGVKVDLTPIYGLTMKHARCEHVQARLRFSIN

Assay [8] deals with Cytochrome P450 2C19 (Homo sapiens, UniProt P33261). Kind of assay: Cytochrome panel assay with activity outcomes. Panel member name: p450-cyp2c19 Compounds with AC50 equal or less than 10 uM are considered active. The assay is classed as functional.
Cytochrome P450 2C19, sequence (P33261 whole entry): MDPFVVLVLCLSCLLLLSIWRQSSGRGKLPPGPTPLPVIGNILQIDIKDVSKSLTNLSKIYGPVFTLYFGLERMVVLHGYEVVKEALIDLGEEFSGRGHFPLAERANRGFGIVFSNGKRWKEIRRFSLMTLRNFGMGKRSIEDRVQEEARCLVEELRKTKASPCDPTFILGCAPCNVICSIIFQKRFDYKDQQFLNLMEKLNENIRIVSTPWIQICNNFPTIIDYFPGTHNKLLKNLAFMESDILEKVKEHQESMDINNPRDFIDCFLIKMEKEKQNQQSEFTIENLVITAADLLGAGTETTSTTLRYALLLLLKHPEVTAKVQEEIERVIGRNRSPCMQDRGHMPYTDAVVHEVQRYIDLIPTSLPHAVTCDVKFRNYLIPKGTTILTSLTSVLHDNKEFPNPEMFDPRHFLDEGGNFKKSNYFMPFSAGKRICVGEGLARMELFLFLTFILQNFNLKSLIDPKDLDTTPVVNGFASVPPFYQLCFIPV
The target in assay [9] is T3, Corticotropin-releasing factor receptor 2/Corticotropin-releasing factor-binding protein (Homo sapiens, UniProt P24387+Q13324).
T3 sequence (Q13324 whole entry): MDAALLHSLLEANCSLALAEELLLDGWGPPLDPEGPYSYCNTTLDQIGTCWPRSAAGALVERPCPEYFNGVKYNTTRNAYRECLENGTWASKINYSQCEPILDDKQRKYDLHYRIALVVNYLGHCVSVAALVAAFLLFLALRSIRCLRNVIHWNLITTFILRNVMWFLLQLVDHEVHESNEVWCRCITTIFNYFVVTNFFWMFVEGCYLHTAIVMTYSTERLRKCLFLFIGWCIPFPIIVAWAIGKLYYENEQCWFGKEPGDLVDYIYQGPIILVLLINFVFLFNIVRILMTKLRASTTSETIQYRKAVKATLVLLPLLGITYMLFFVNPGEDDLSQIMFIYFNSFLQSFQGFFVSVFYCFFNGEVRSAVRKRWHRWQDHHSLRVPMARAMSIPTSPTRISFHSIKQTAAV
T3 sequence (P24387 whole entry): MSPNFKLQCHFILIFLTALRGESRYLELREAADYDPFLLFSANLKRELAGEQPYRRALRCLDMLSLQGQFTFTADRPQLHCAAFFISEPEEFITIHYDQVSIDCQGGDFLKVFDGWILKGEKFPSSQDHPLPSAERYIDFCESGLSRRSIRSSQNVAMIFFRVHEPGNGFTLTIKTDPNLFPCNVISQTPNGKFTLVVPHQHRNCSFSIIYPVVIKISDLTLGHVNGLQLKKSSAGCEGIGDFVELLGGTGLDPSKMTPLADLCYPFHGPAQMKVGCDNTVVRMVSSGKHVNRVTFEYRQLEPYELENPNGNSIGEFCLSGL
Kind of assay: activators of CRF receptor 2 with binding protein – uHTS hits, confirmation (AID 602473). The assay is classed as functional. The settings on record: read-out: EC50_Mean.

Assay [10] concerns the target Cytochrome P450 2D6 (Homo sapiens, UniProt P10635).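 Also: CYP2D6 member of a cytochrome P450 panel assay.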
The subject of assay [11] is Streptococcus sp. 'group A'. Kind of assay: Streptococcus pyogenes SK(-)GAS viability under kanamycin – luminescence, BacTiterGlo, confirmation, counter-screen for streptokinase expression inhibitor project, dose response (AID 1900). The assay is classed as functional, organism-based.
The test system of assay [12] is Streptococcus. Kind of assay: GAS UMAA2166 growth inhibition – luminescence, BacTiterGlo, counter-screen for streptokinase expression inhibitor project, dose response (AID 1915).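 Also: potency for reduction of bacterial viability or growth.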 The assay is classed as functional, organism-based.
Assay [13] is described as follows: Luminescence Cell-Based Dose Retest to Confirm Inhibitors of Cancer Stem Cells. [Related pubchem assays (depositor defined):AID2717, AID2721]. The conditions noted are these: Homo sapiens. The assay is classed as functional.

Cytochrome P450 2D6, sequence (P10635 whole entry): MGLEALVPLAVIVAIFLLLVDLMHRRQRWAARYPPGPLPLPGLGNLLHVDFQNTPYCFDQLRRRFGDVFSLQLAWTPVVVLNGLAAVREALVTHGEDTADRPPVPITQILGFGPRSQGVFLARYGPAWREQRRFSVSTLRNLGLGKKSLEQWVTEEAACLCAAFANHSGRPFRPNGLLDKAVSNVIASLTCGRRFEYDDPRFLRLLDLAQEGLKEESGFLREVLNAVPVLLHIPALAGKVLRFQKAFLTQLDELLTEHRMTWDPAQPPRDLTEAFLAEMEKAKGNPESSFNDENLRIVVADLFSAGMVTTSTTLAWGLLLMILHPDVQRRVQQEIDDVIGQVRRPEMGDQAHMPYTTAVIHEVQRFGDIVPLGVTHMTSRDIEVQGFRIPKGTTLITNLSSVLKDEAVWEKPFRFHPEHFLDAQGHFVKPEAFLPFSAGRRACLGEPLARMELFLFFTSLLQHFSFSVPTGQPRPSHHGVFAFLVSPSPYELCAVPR
Cytochrome P450 2C9, sequence (P11712 whole entry): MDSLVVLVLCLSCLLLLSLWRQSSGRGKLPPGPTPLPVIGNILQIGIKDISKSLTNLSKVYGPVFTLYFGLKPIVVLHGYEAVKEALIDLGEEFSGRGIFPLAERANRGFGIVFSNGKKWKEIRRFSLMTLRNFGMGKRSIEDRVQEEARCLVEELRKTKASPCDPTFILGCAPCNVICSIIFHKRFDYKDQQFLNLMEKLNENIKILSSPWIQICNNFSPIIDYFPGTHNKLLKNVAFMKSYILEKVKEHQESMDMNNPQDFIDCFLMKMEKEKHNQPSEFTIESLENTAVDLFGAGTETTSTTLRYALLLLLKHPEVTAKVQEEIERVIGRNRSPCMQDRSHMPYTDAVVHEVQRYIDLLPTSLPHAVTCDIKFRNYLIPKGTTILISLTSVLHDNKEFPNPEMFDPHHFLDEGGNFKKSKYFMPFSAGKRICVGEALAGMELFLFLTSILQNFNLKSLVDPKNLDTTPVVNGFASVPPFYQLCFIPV
Cytochrome P450 3A4, sequence (P08684 whole entry): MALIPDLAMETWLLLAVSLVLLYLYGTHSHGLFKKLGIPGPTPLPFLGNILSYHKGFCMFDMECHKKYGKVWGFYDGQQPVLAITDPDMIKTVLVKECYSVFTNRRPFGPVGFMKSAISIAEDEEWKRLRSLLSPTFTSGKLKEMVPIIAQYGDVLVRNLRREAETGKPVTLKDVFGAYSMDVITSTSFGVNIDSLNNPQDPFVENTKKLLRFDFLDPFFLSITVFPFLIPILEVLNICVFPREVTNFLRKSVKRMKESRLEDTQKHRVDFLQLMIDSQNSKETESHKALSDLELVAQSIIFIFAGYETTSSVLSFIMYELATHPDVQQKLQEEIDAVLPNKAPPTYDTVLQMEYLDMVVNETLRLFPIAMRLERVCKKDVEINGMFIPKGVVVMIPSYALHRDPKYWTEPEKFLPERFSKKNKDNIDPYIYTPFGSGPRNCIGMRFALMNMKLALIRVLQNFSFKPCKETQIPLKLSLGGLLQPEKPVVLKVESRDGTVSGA

As for `O=S(=O)(NC1CC1)c1ccc(S(=O)(=O)N2CCC(c3nc(O)c4nnn(Cc5cccc(F)c5)c4n3)CC2)cc1`, in assay [1], the half-maximal cytotoxic concentration (CC50) is 24.8 µM (active).

For `COc1cc(OC)c(C(=O)Nc2ccccc2-c2ccccc2)cc1OC`, in assay [1], the CC50 was 18.9 µM (active).

As to `N#Cc1nc(-c2ccc(OCc3ccccc3)cc2)oc1NCCN1CCOCC1`, the AC50 in assay [2] was 3.98 µM (inconclusive).

Regarding `CCOC(=O)C1=C(N)Oc2cc(O)ccc2C1c1ccc([N+](=O)[O-])cc1` (stereo not given), the CC50 in assay [1] is 16.9 µM (active). Also, the results for the EC50 in [3] and in [4] were > 60 µM (not active) and 0.659 µM (active), respectively.

As to `CCc1ccc(/C=C2\Oc3cc(OC(=O)N4CCOCC4)ccc3C2=O)cc1`, in assay [5], the EC50 is reported as > 195 µM (not active).

For the compound `C[C@H]1C[C@@H]2[C@H]3CCC4=CC(=O)C=C[C@@]4(C)[C@@]3(Cl)[C@@H](O)C[C@]2(C)[C@]1(OC(=O)c1ccco1)C(=O)CCl`, the figures for the AC50 in assay [6], in [7] and in assay [8] were 5.01 µM (inconclusive), 5.01 µM (inconclusive) and 7.94 µM (inconclusive), respectively.

`COc1ccc(NC(=O)N2CC[C@@]3(CCCN(C(=O)Oc4ccccc4)C3)C2)cc1`: the AC50 in assay [6] was 25.1 µM (inconclusive); in assay [2], 39.8 µM (inconclusive); in [8] it was 15.8 µM (inconclusive).

Take `Cc1ccc(C(C)C)c2c1C(c1ccc3c(c1)OCO3)CC(=O)O2` (stereo not given): the EC50 in [9] was 4.51 µM (active).

`Cn1c(=O)c(CCc2ccccc2)nc2cnc(N3CCNCC3)nc21`: the AC50 in assay [6] is 25.1 µM (inconclusive); in assay [2], 0.0251 µM (inconclusive).

Turning to `S=C(c1ccc(-c2ccc(Br)cc2)o1)N1CCCCC1`, in assay [1], the CC50 is 29.3 µM (active).

`CSc1cccc(NC(=O)Cn2cccc2)c1`: the AC50 was 22.4 µM (inconclusive) in [2] and 14.1 µM (inconclusive) in assay [10].

With `Cc1nn(C)c(Cl)c1CN1CCCC(CO)(Cc2cccc(Cl)c2)C1` (stereo not given), the CC50 in assay [1] was 43.6 µM (active).

In the case of `O=C(Nc1cccc(F)c1)N1CC[C@@]2(CCCN(C(=O)c3cccc(F)c3)C2)C1`, the results for the AC50 in [7] and in assay [2] were 12.6 µM (inconclusive) and 15.8 µM (inconclusive), respectively.

`N#Cc1cccc(NC(=O)N2CCCC3(CCN(C(=O)c4csnn4)CC3)C2)c1`: the AC50 in [2] was 15.8 µM (inconclusive).

`Cc1cc(C(=O)C(=O)NC(C)C)c(C)n1-c1ccc([N+](=O)[O-])cc1`: in assay [8], the AC50 was 0.0708 µM (inconclusive).

As for `CCC(CC)C(=O)NCCN1CCN(C(=O)C(CC)CC)CC1`, in assay [8], the AC50 was 31.6 µM (inconclusive).

Take `Cc1cccc(N2CCN(C(=O)Cc3ccc(-n4c(=O)[nH]c5ccsc5c4=O)cc3)CC2)c1C`: the CC50 in [1] was 30.2 µM (active).

As for `COCCn1c(=O)c(-c2ccccc2)nc2cnc(Oc3ccccc3)nc21`, the AC50 in assay [2] is 31.6 µM (inconclusive).

As for `CCOc1ccc(S(=O)(=O)N2CCN(C(=O)c3cc(-c4ccccc4)nn3-c3ccccc3)CC2)cc1`, the CC50 in assay [1] is 48 µM (active).

On to `Cc1ccc(-c2nc3ccccc3c(=O)n2-c2ncccc2C)cc1`, for which the AC50 is 17.8 µM (inconclusive) in assay [6] and 28.2 µM (inconclusive) in [8].

As to `COc1ccc2c(c1)OC[C@H]1[C@H]2N2C(=O)CN(Cc3ccc(Cl)cc3)C(=O)[C@@]2(C)[C@H]1c1ccccc1`, in [1], the CC50 was 14.7 µM (active).

As for `CCOc1ccc(NC(=O)c2nnn(CC(=O)Nc3ccccc3OC)c2N)cc1`, in assay [8], the AC50 was 3.55 µM (inconclusive).

With `CC1=CC(=C2C(=O)c3ccccc3C2=O)C=C(C)O1`, the AC50 in assay [2] is 14.1 µM (inconclusive).

On to `CSCCC(NC(=O)c1ccco1)C(=O)N1CC=C(c2ccccc2)CC1` (stereo not given), for which the EC50 in [9] was 6.78 µM (active).

In the case of `CC1(C)CC(=O)C2=C(C1)N(Cc1cccnc1)C(=O)C2(NC(=O)c1cccnc1)C(F)(F)F` (stereo not given), the AC50 in assay [6] was 0.0794 µM (inconclusive); in [7], 28.2 µM (inconclusive); in [8], 15.8 µM (inconclusive).

`CC(=O)OC[C@@H]1O[C@H](CCO/N=C(\C)CCN2CCc3nc(-c4ccccc4)c(-c4ccccc4)cc3C2)C=C[C@@H]1OC(C)=O`: the AC50 is 3.16 µM (inconclusive) in assay [6] and 3.98 µM (inconclusive) in assay [2].

As for `CC(C)=CCC12Oc3cc(O)ccc3C1(O)Oc1cc3c(c(O)c1C2=O)C=CC(C)(C)O3` (stereo not given), the results for the EC50 in assay [11] and in [12] were 3.32 µM (active) and 3.92 µM (active), respectively.

As to `COc1ccc(-c2csc(-c3cccnc3)n2)cc1C`, in assay [1], the CC50 is 38.8 µM (active).

In the case of `CC1(C(=O)CSc2nc3ccccc3s2)CCC(=O)O1` (stereo not given), the concentration at half-maximal activity (AC50) was 3.55 µM (inconclusive) in assay [7] and 14.1 µM (inconclusive) in assay [2].

As for `CCNc1ncc2nc(-c3cccs3)c(=O)n(Cc3ccc(F)cc3)c2n1`, the half-maximal activity concentration (AC50) in assay [6] is 31.6 µM (inconclusive); in [7], 10 µM (inconclusive); in [8], 20 µM (inconclusive); in assay [10], 31.6 µM (inconclusive).

As to `CCNc1ncc2ncc(=O)n(CCc3ccccc3)c2n1`, the values for the AC50 in assay [6], in [2] and in assay [10] were 15.8 µM (inconclusive), 15.8 µM (inconclusive) and 25.1 µM (inconclusive), respectively.

In the case of `Cc1ccc(N(CC(=O)NC2CCCCC2)C(=O)CNC(=O)c2ccco2)c(C)c1`, the EC50 in [5] is > 195 µM (not active).

Regarding `COc1ccc(NC(=O)N2CCCC2C(=O)Nc2ccccc2)cc1` (stereo not given), the AC50 in assay [6] was 28.2 µM (inconclusive); in assay [8], 20 µM (inconclusive).

Take `COC(=O)C(NC(=O)c1ccccc1)=C1C=C(C)OC(C)=C1`: the concentration at half-maximal activity (AC50) in assay [7] is 14.1 µM (inconclusive); in [2], 22.4 µM (inconclusive).

Turning to `Cc1ccc(C(=O)NCCNC(=O)c2ccc(F)cc2)cn1`, the EC50 in assay [9] is > 53 µM (inactive).

For the compound `C/C(=N\O)c1ccc2[nH]ccc2c1`, the AC50 in assay [2] is 22.4 µM (inconclusive); in assay [8] it was 11.2 µM (inconclusive).

Take `Cc1nn(-c2ccccc2)c(N2CCCCC2)c1/C=N/O`: the AC50 in assay [6] is 7.08 µM (inconclusive); in [2], 14.1 µM (inconclusive); in [13] it was 3.97 µM (active).

As to `COC(=O)C1C(O)=C(/C=N/Cc2ccccc2)C(=O)CC1(C)C` (stereo not given), the AC50 was 14.1 µM (inconclusive) in [6] and 39.8 µM (inconclusive) in assay [8].

As to `COc1c(CC=C(C)C)c(O)cc2oc(=O)c3c4ccc(O)cc4oc3c12` [GLYCYROL], the CC50 in assay [1] was 26.5 µM (active).
